Our source for the IC50 values is PubChem BioAssay AID743119 (The Scripps Research Institute Molecular Screening Center, 2013).

Molecules are shown by their SMILES. pIC50: −log10 of the molar value.

What is called pIC50 is −log10 of the IC50, conventionally taken in molar units.

Experiment [1] addresses Acyl-protein thioesterase 1 (Homo sapiens) (UniProt O75608). The experiment can be described thus: LYPLA1 and LYPLA2 inhibition in intact cells, late-stage follow-up, HeLa cells, in situ treatment, fluorescence gel (AID 743119). The following applies: gel-based ABPP FP-Rh fluorescence, LYPLA1.
Experiment [2] concerns the target Acyl-protein thioesterase 2 (Homo sapiens) (UniProt O95372). The description is as above. The conditions noted are these: gel-based ABPP FP-Rh fluorescence, LYPLA2.

Chain of Acyl-protein thioesterase 1 (Homo sapiens) (O75608 whole entry, looked up): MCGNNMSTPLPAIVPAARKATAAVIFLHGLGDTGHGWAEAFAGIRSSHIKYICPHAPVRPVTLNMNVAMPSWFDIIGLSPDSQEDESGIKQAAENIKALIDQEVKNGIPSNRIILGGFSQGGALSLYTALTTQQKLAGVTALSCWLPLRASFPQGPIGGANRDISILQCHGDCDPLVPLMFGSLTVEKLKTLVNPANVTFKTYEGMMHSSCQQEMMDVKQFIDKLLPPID
Chain of Acyl-protein thioesterase 2 (Homo sapiens) (O95372 whole entry, looked up): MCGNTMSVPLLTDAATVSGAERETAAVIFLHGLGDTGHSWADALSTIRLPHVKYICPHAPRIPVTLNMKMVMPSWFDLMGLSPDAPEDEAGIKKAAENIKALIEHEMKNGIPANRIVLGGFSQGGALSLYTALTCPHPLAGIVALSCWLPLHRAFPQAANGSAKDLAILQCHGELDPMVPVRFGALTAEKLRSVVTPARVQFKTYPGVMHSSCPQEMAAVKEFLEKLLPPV

Turning to `O=C(ON1C(=O)C2CN(C(=O)N3CCOCC3)CCN2C1=O)N1CCC(CCc2ccc(Cl)cc2)CC1` (configuration not stated), the figures for the pIC50 in experiment [1] and in experiment [2] were 7.06 and 6.84, respectively.
